How the values were obtained:
[1] = test system: native non-human primate brain NA activity (microsomal and membrane fractions); test: NA inhibition assay, non-human primate brain extracts; format: biochemical, Macaca fascicularis
[2] = test system: recombinant human NAs Neu1–4; test: NA inhibition assay, all 4 recombinant human NAs; format: biochemical; conditions: for partial inhibition of all 4 human NAs: concentrations higher than 1 mM; for inhibition of all 4 human NAs: up to a concentration of 1 mM
[3] = test system: panel of 155 molecular targets unrelated to NAs; test: Selectivity panel of 155 molecular targets unrelated to NAs; conditions: for pharmacological activity on panel targets: 3 and 30 μM, 50% cut-off for relevance; for low levels of activity, inhibition/stimulation, on eleven targets: at either 3 μM or 30 μM
recombinant human Neu2 = recombinant human Neu2 (Homo sapiens, UniProt Q9Y3R4); test: NA inhibition assay, recombinant human Neu2; format: biochemical
recombinant human NAs = conditions: concentrations up to 1 mM; ref Hata et al. (2008); cited from earlier work
[4] = Steady-state exposure in adults, standard regimen; format: in vivo, human; conditions: 75 mg twice daily for 5 days
[5] = test system: NA activity in rat brain tissue; test: NA inhibition assay, rat brain-derived tissue; format: biochemical; conditions: concentrations up to 1 mM
[6] = target: recombinant α1β2γ2 GABAA receptor (Homo sapiens, UniProt P14867+P18507+P47870); test: Electrophysiological GABAA patch-clamp assay; format: cell-based
human Neu2 = conditions: read-out: IC50 on human Neu2; recombinant; ref Hata et al. (2008); cited from earlier work
recombinant human Neu4 = target: T1, recombinant human Neu4 (Homo sapiens, UniProt Q8WWR8); test: NA inhibition assay, recombinant human Neu4; format: biochemical
T1 sequence (Q8WWR8 1-484): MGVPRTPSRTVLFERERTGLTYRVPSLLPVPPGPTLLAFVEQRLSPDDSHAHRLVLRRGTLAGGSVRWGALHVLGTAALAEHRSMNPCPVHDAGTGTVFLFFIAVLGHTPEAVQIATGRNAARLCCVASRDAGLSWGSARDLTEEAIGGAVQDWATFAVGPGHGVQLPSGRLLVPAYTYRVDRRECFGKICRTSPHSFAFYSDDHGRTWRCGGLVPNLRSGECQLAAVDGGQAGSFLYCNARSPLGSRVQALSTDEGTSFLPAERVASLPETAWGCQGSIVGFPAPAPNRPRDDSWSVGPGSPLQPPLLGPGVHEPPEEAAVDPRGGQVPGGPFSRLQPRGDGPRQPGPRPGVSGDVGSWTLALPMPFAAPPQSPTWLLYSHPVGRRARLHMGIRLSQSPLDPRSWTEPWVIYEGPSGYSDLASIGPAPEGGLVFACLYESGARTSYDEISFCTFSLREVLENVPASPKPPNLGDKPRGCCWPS

[7] = test system: NA activity of different viral strains; conditions: read-out: IC50 on NA activity of different viral strains; ref Hata et al. (2008); cited from earlier work
[8] = test system: Gαi- and Gαs-linked G protein-coupled receptors in whole rat brain membranes; conditions: ref Satoh et al. (2007); cited from earlier work
human Neu1 = conditions: read-out: IC50 on human Neu1; recombinant; ref Hata et al. (2008); cited from earlier work
recombinant human Neu3 = target: T2, recombinant human Neu3 (Homo sapiens, UniProt Q9UQ49); test: NA inhibition assay, recombinant human Neu3; format: biochemical
T2 sequence (Q9UQ49 1-428): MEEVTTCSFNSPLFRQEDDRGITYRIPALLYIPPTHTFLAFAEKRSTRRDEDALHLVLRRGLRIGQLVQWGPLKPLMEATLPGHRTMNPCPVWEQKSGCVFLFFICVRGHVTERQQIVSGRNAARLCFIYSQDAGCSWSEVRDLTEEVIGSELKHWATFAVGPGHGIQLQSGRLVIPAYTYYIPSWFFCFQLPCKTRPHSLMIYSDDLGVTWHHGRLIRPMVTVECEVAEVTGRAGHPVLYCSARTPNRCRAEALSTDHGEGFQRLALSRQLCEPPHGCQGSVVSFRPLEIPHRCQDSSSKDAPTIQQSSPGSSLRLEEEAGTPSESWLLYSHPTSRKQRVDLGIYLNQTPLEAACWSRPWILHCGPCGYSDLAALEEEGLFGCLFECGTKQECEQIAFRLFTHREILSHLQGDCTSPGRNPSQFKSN

human Neu3 = conditions: read-out: IC50 on human Neu3; recombinant; ref Hata et al. (2008); cited from earlier work
recombinant human Neu1 = recombinant human Neu1 (Homo sapiens, UniProt Q99519); test: NA inhibition assay, recombinant human Neu1; format: biochemical
human Neu4 = conditions: read-out: IC50 on human Neu4; recombinant; ref Hata et al. (2008); cited from earlier work
[9] = target: recombinant influenza virus NA (Influenza A virus, UniProt Q30NP8); test: NA inhibition assay, recombinant influenza virus NA; format: biochemical, influenza strain A/Beijing/39/1975 H3N2
[10] = concentrations higher than 10 mM
[11] = microsomal and membrane fractions, concentrations up to 10 mM
[12] = concentrations higher than 5 mM
[13] = concentrations higher than 2 mM
[14] = concentrations higher than 1 mM

Chain of recombinant human Neu2 (Q9Y3R4 whole entry): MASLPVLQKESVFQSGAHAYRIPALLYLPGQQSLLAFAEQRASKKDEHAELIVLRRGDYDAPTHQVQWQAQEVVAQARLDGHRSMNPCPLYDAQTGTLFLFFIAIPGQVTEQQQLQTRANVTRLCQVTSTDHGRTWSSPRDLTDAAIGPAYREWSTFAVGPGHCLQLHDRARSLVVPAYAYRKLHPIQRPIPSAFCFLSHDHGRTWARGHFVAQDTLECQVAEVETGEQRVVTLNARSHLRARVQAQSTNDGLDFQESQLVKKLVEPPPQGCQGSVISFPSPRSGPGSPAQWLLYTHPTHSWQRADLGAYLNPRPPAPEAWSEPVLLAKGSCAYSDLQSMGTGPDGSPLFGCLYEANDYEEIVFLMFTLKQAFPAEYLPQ
Chain of recombinant α1β2γ2 GABAA receptor (P14867 28-456): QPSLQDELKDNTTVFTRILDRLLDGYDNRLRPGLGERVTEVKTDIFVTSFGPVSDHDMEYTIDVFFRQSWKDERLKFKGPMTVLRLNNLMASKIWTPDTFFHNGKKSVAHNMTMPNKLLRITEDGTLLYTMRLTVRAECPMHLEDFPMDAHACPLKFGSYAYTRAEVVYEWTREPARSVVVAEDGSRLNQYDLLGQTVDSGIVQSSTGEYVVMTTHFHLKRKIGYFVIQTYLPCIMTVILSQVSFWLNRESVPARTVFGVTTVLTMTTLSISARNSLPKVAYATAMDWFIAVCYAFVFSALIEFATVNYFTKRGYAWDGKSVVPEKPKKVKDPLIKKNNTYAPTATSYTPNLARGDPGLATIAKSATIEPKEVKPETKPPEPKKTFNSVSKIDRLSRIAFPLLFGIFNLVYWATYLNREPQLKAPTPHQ
Chain of recombinant α1β2γ2 GABAA receptor (P47870 25-512 limits assumed): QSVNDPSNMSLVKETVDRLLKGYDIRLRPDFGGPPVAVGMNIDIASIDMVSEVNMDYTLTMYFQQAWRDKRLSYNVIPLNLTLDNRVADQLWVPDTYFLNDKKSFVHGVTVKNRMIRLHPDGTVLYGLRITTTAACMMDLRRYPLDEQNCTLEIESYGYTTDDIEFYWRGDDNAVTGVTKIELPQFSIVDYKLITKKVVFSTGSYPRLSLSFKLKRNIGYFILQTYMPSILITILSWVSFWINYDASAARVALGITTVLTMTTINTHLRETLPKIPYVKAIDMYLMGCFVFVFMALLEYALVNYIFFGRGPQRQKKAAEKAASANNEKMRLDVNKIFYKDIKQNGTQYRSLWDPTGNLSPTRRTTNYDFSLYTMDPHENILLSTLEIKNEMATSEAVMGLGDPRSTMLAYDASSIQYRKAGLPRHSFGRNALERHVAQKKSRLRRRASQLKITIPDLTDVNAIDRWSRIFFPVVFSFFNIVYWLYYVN
Chain of recombinant α1β2γ2 GABAA receptor (P18507 40-475): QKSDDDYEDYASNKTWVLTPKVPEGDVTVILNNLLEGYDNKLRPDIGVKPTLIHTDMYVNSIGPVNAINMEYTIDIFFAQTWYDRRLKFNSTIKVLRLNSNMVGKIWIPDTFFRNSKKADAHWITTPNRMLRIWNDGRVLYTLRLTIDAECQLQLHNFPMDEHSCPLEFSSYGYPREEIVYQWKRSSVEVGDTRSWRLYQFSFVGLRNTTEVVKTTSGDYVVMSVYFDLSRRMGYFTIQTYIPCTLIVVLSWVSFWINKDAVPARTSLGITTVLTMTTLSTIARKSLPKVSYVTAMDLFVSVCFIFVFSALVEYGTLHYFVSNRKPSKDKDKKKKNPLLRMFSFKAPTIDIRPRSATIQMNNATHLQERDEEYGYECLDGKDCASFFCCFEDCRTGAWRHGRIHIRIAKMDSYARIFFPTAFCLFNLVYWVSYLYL
Chain of recombinant influenza virus NA (Q30NP8 whole entry, looked up): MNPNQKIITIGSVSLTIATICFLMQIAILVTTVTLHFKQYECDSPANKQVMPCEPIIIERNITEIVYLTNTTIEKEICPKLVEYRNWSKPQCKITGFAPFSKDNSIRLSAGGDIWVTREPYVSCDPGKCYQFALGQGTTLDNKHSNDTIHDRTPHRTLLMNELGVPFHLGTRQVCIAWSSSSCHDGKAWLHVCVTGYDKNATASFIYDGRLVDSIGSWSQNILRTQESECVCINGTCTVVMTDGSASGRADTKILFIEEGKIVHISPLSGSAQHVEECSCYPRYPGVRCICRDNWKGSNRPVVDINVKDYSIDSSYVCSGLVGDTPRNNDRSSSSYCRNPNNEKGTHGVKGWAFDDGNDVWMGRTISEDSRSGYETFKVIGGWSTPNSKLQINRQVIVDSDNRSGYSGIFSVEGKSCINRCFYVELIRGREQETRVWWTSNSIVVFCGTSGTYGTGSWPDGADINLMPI

Compound	inhibition of non-human primate brain NA activity [1, 10]	inhibition of non-human primate brain NA activity [1, 11]	partial inhibition of all 4 human NAs [2]	inhibition of all 4 human NAs [2]	pharmacological activity on panel targets [3]	low levels of activity, inhibition/stimulation, on eleven targets [3]	inhibitory activity on Neu2 (recombinant human Neu2; [12])	inhibitory activity on Neu2 (recombinant human Neu2; concentrations up to 5 mM)	extrapolated brain Cmax [4]	inhibition of NA activity in rat brain tissue [5]	activity on GABAA in patch-clamp, on GABA and pentobarbital [6]	inhibitory activity on Neu4 (recombinant human Neu4; [13])	inhibitory activity on Neu4 (recombinant human Neu4; concentrations up to 2 mM)	effect on [35S]-GTP-γS binding [8]	inhibitory activity on Neu3 (recombinant human Neu3; [12])	inhibitory activity on Neu3 (recombinant human Neu3; concentrations up to 5 mM)	inhibitory activity on Neu1 (recombinant human Neu1; [14])	inhibitory activity on Neu1 (recombinant human Neu1; concentrations up to 1 mM)	other results
CCC(CC)O[C@@H]1C=C(C(=O)O)C[C@H](N)[C@H]1NC(C)=O [OC, oseltamivir carboxylate]	partial inhibition	no inhibition	20–40%	no inhibition	no relevant pharmacological activity	20–27%	partial inhibition	no inhibition	~ 77 nM	no inhibition	lack of any significant, inhibitory, excitatory or modulatory activity	trend for an inhibitory activity	no inhibition	no effect	partial inhibition	no inhibition	partial inhibition	no inhibitory activity	inhibitory activity on any of the human NAs (recombinant human NAs): no or negligible inhibitory activity; IC50 (human Neu2): > 6 mM; IC50 [7]: 1.6 to 7.1 nM; IC50 (human Neu1): > 10 mM; IC50 (human Neu3): > 10 mM; IC50 (human Neu4): > 10 mM
CCOC(=O)C1=C[C@@H](OC(CC)CC)[C@H](NC(C)=O)[C@@H](N)C1 [OP, oseltamivir phosphate]	partial inhibition	no inhibition	20–40%	no inhibition	no relevant pharmacological activity	20–41%	partial inhibition	no inhibition	~ 6.7 nM	no inhibition	lack of any significant, inhibitory, excitatory or modulatory activity	trend for an inhibitory activity	no inhibition	no effect	partial inhibition	no inhibition	partial inhibition	no inhibitory activity	IC50 [9]: ~0.01 mM
